{
  "source": "patent US9464084B2",
  "about": "“P2X7 modulators” (Janssen Pharmaceutica NV, priority 2013, dated 2016)",
  "key": {"P2X7 [1]": {"target": "T1, P2X7 (Homo sapiens (Human), UniProt Q99572)", "T1 sequence (Q99572 whole entry)": "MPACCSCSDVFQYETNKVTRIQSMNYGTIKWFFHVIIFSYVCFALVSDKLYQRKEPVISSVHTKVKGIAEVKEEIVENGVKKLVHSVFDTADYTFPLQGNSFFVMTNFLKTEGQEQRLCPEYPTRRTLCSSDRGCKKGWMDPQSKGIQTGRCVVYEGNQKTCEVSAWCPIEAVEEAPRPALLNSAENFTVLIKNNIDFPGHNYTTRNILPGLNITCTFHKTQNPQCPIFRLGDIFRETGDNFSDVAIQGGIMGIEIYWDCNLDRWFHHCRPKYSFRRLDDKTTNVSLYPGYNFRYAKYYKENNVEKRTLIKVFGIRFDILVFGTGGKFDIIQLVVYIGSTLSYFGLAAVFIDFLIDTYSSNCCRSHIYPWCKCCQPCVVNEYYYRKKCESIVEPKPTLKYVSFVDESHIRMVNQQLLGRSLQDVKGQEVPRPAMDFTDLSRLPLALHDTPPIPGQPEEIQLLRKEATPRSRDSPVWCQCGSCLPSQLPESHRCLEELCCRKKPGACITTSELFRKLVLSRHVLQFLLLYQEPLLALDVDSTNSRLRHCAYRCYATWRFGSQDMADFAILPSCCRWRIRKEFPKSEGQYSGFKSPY", "experiment": "P2X7 antagonism in human PBMCs (LPS + Bz-ATP induced IL-1β release, ELISA);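 as to all read-outs here: PBMCs from donor human blood, with a further 1.5 h incubation of the cells in the assay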", "format": "cell-based", "details": "LPS 30 ng/ml, Bz-ATP 0.5 mM; for PBMC 10 μM (% control): compound 10 μM; for PBMC 1 μM (% control): compound 1 μM"}, "P2X7 [2]": {"target": "T1, P2X7", "experiment": "Radioligand binding, tritiated A-804598, human P2X7-1321N1 cell membranes;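 also: ki obtained from the binding IC50 after correction for tracer concentration and tracer affinity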", "details": "1 hour at 4° C.", "description": "(§1) On the day of the experiment, cell membrane preparations were made according to standard published methods. […] The assay was terminated by filtration (GF/B filters pre-soaked with 0.3% PEI) and washed with washing buffer (Tris-HCl 50 mM). The IC50 generated in the binding assay was corrected for tracer concentration and affinity of the tracer to derive at the affinity (Ki) of the test compounds."}, "P2X7 [3]": {"target": "T1, P2X7", "experiment": "Ca2+ flux (FLIPR) in 1321N1 cells expressing recombinant human P2X7 channel;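 also: Calcium-4 dye-loaded cells exposed to compound for 30 min before agonist addition, fluorescence change read 180 s after agonist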", "format": "cell-based", "details": "250 μM BzATP", "description": "Cells were seeded at a density of 25000 cells/well (96-well clear bottom black walled plates) in 100 μl volume/well. On the day of the experiment, cell plates were washed with assay buffer, containing (in mM): 130 NaCl, 2 KCl, 1 CaCl2, 1 MgCl2, 10 HEPES, 5 glucose; pH 7.40 and 300 mOs. After the wash, cells were loaded with the Calcium-4 dye (Molecular Device) and incubated in the dark for 60 minutes. Test compounds were prepared at 250× the test concentration in neat DMSO. Intermediate 96-well compound plates were prepared by transferring 1.2 μL of the compound into 300 μL of assay buffer. A further 3× dilution occurred when transferring 50 μL/well of the compound plate to 100 μL/well in the cell plate. Cells were incubated with test compounds and dye for 30 minutes. […] The fluorescence change was measured 180 seconds after adding the agonist."}, "rat P2X7 [4]": {"target": "T2, rat P2X7 (Rattus norvegicus (Rat), UniProt Q64663)", "T2 sequence (Q64663 whole entry)": "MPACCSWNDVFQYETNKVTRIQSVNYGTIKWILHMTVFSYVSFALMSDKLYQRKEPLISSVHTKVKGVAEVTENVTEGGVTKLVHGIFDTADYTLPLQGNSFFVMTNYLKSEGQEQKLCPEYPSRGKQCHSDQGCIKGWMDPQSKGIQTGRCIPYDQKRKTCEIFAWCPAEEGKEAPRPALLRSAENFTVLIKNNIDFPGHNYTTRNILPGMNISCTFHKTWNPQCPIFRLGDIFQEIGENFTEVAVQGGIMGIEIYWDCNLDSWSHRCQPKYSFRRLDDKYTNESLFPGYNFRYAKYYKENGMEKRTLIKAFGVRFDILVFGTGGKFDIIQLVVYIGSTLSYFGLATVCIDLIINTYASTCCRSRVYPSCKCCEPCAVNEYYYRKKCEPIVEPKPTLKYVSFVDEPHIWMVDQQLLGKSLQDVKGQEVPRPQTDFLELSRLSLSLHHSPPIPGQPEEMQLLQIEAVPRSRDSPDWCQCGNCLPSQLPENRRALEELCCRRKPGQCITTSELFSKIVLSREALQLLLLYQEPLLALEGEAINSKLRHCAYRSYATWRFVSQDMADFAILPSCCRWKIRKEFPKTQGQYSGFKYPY", "experiment": "Ca2+ flux (FLIPR) in 1321N1 cells expressing recombinant rat P2X7 channel;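 also: Calcium-4 dye fluorescence change read 180 s after agonist addition, following 30 min cell preincubation with test compound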", "format": "cell-based", "details": "250 μM BzATP"}, "P2X7 [5]": {"target": "T1, P2X7", "experiment": "P2X7 antagonism in human whole blood (LPS + Bz-ATP induced IL-1β release, ELISA)", "format": "cell-based", "details": "LPS 30 ng/ml, Bz-ATP 1 mM", "description": "Human blood was collected using a blood donor program. PBMCs were isolated from blood using a Ficoll density gradient technique. Briefly, blood was laid on Ficoll solution and centrifuged at RT for 20 minutes at 2000 rpm. The buffy layer (between red blood cells and plasma) was carefully collected by aspiration, washed with PBS and centrifuged again at 1500 rpm for 15 minutes. The resulting cell pellet was washed and plated on 96 well-plates for experiments. For the Mouse/Human Whole Blood experiments, 150 μl of either mouse or human blood was platted on 96 well-plates. Lipopolysaccharide (LPS) (30 ng/ml) was added to each well and incubated for 1 hour. Test compounds were then added and incubated for 30 minutes. The P2X7 agonist, 2′(3′)-O-(4-benzoylbenzoyl) adenosine 5′ triphosphate (Bz-ATP) was then added at a final concentration of 0.5 mM (PBMC) or 1 mM (blood). Cells were incubated for an additional 1.5 hours. At that point, supernatant was collected and stored for IL-1β assay using manufacturer's protocol for enzyme-linked immunosorbent assay (ELISA). Data was expressed as percent control, where control is defined as the difference in IL-1β release in LPS+Bz-ATP samples and LPS only samples. Data was plotted as response (% control) versus concentration to generate IC50 values."}, "rat P2X7 [6]": {"target": "T2, rat P2X7", "experiment": "Radioligand binding, tritiated A-804598, rat P2X7-1321N1 cell membranes", "details": "1 hour at 4° C.", "description": "as §1"}},
  "data": [
    {"smiles": "O=C(c1ccc(F)c(Cl)c1Cl)N1CCc2c(nnn2-c2ccccn2)C1", "note": "[Example 130, (2,3-Dichloro-4-fluorophenyl)(1-(pyridin-2-yl)-6,7-dihydro-1H-[1,2,3]triazolo[4,5-c]pyridin-5(4H)-yl)methanone]", "values": [
      {"measurement": "PBMC 10 μM (% control)", "setting": "P2X7 [1]", "result": 3.7, "unit": "% control"},
      {"measurement": "Ki", "setting": "P2X7 [2]", "result": 50.1, "unit": "nM"},
      {"measurement": "IC50", "setting": "P2X7 [3]", "result": 3.6, "unit": "nM"},
      {"measurement": "IC50", "setting": "rat P2X7 [4]", "result": 154, "unit": "nM"},
      {"measurement": "IC50", "setting": "P2X7 [5]", "result": 501, "unit": "nM"}
    ]},
    {"smiles": "C[C@H]1c2nnn(-c3ccn(C)n3)c2CCN1C(=O)c1cccc(C(F)(F)F)c1Cl", "note": "(single isomer, unassigned) [Example 170, (S*)-(2-Chloro-3-(trifluoromethyl)phenyl)(4-methyl-1-(1-methyl-1H-pyrazol-3-yl)-6,7-dihydro-1H-[1,2,3]triazolo[4,5-c]pyridin-5(4H)-yl)methanone]", "values": [
      {"measurement": "PBMC 10 μM (% control)", "setting": "P2X7 [1]", "result": "−5.7", "unit": "% control"},
      {"measurement": "Ki", "setting": "P2X7 [2]", "result": 20, "unit": "nM"},
      {"measurement": "Ki", "setting": "rat P2X7 [6]", "result": 3.2, "unit": "nM"},
      {"measurement": "IC50", "setting": "P2X7 [3]", "result": 8.9, "unit": "nM"},
      {"measurement": "IC50", "setting": "rat P2X7 [4]", "result": 10.2, "unit": "nM"}
    ]},
    {"smiles": "O=C(c1cccc(C(F)(F)F)c1Cl)N1CCc2c(-c3ccccc3)n[nH]c2C1", "note": "[Example 99, (2-Chloro-3-(trifluoromethyl)phenyl)(3-phenyl-4,5-dihydro-1H-pyrazolo[3,4-c]pyridin-6(7H)-yl)methanone]", "values": [
      {"measurement": "PBMC 1 μM (% control)", "setting": "P2X7 [1]", "result": 7.0, "unit": "% control"},
      {"measurement": "Ki", "setting": "P2X7 [2]", "result": 81.3, "unit": "nM"},
      {"measurement": "Ki", "setting": "rat P2X7 [6]", "result": 741, "unit": "nM"},
      {"measurement": "IC50", "setting": "P2X7 [3]", "result": 11.5, "unit": "nM"},
      {"measurement": "IC50", "setting": "rat P2X7 [4]", "result": 195, "unit": "nM"}
    ]},
    {"smiles": "Cc1ccnc(-n2nnc3c2CCN(C(=O)c2cccc(C(F)(F)F)c2Cl)[C@@H]3C)n1", "note": "[Example 235, (4R)-(2-Chloro-3-(trifluoromethyl)phenyl)(4-methyl-1-(4-methylpyrimidin-2-yl)-6,7-dihydro-1H-[1,2,3]triazolo[4,5-c]pyridin-5(4H)-yl)methanone]", "values": [
      {"measurement": "PBMC 10 μM (% control)", "setting": "P2X7 [1]", "result": "−3.7", "unit": "% control"},
      {"measurement": "Ki", "setting": "P2X7 [2]", "result": 14.1, "unit": "nM"},
      {"measurement": "Ki", "setting": "rat P2X7 [6]", "result": 3.1, "unit": "nM"},
      {"measurement": "IC50", "setting": "P2X7 [3]", "result": 5.4, "unit": "nM"},
      {"measurement": "IC50", "setting": "rat P2X7 [4]", "result": 6.6, "unit": "nM"}
    ]},
    {"smiles": "C[C@H]1c2nnn(-c3ccn(CCF)n3)c2CCN1C(=O)c1cccc(C(F)(F)F)c1Cl", "note": "(single isomer, unassigned) [Example 172, (S*)-(2-Chloro-3-(trifluoromethyl)phenyl)(1-(1-(2-fluoroethyl)-1H-pyrazol-3-yl)-4-methyl-6,7-dihydro-1H-[1,2,3]triazolo[4,5-c]pyridin-5(4H)-yl)methanone]", "values": [
      {"measurement": "PBMC 10 μM (% control)", "setting": "P2X7 [1]", "result": "−6.0", "unit": "% control"},
      {"measurement": "Ki", "setting": "rat P2X7 [6]", "result": 5, "unit": "nM"},
      {"measurement": "IC50", "setting": "rat P2X7 [4]", "result": 5.4, "unit": "nM"}
    ]},
    {"smiles": "O=C(c1cccc(Cl)c1Cl)N1CCc2c(nnn2-c2ncccn2)C1", "note": "[Example 67, 5-[(2,3-Dichlorophenyl)carbonyl]-1-pyrimidin-2-yl-4,5,6,7-tetrahydro-1H-[1,2,3]triazolo[4,5-c]pyridine]", "values": [
      {"measurement": "PBMC 10 μM (% control)", "setting": "P2X7 [1]", "result": 6.5, "unit": "% control"},
      {"measurement": "Ki", "setting": "P2X7 [2]", "result": 7.9, "unit": "nM"},
      {"measurement": "IC50", "setting": "P2X7 [3]", "result": 3, "unit": "nM"},
      {"measurement": "IC50", "setting": "rat P2X7 [4]", "result": 78.9, "unit": "nM"},
      {"measurement": "IC50", "setting": "P2X7 [5]", "result": 158, "unit": "nM"}
    ]},
    {"smiles": "O=C(c1cccc(C(F)(F)F)c1F)N1CCc2c(nnn2-c2ncccn2)C1", "note": "[Example 66, 5-{[2-Fluoro-3-(trifluoromethyl)phenyl]carbonyl}-1-pyrimidin-2-yl-4,5,6,7-tetrahydro-1H-[1,2,3]triazolo[4,5-c]pyridine]", "values": [
      {"measurement": "PBMC 10 μM (% control)", "setting": "P2X7 [1]", "result": 2.7, "unit": "% control"},
      {"measurement": "Ki", "setting": "P2X7 [2]", "result": 15.8, "unit": "nM"},
      {"measurement": "IC50", "setting": "P2X7 [3]", "result": 17.4, "unit": "nM"},
      {"measurement": "IC50", "setting": "rat P2X7 [4]", "result": 206, "unit": "nM"},
      {"measurement": "IC50", "setting": "P2X7 [5]", "result": 363, "unit": "nM"}
    ]},
    {"smiles": "O=C(c1cccc(C(F)(F)F)c1Cl)N1CCc2c(nnn2-c2cc(F)ccn2)C1", "note": "[Example 131, (2-Chloro-3-(trifluoromethyl)phenyl)(1-(4-fluoropyridin-2-yl)-6,7-dihydro-1H-[1,2,3]triazolo[4,5-c]pyridin-5(4H)-yl)methanone]", "values": [
      {"measurement": "PBMC 10 μM (% control)", "setting": "P2X7 [1]", "result": 8.3, "unit": "% control"},
      {"measurement": "Ki", "setting": "P2X7 [2]", "result": 50.1, "unit": "nM"},
      {"measurement": "IC50", "setting": "P2X7 [3]", "result": 2.9, "unit": "nM"},
      {"measurement": "IC50", "setting": "rat P2X7 [4]", "result": 51.5, "unit": "nM"},
      {"measurement": "IC50", "setting": "P2X7 [5]", "result": 316, "unit": "nM"}
    ]},
    {"smiles": "CCOC(=O)C1c2ncn(-c3ccccc3)c2CCN1C(=O)c1cccc(C(F)(F)F)c1Cl", "note": "(stereo not drawn) [Example 26, Ethyl 5-(2-chloro-3-(trifluoromethyl)benzoyl)-1-phenyl-4,5,6,7-tetrahydro-1H-imidazo[4,5-c]pyridine-4-carboxylate]", "values": [
      {"measurement": "PBMC 1 μM (% control)", "setting": "P2X7 [1]", "result": 14.0, "unit": "% control"},
      {"measurement": "Ki", "setting": "P2X7 [2]", "result": 85.1, "unit": "nM"},
      {"measurement": "IC50", "setting": "P2X7 [3]", "result": 9.8, "unit": "nM"},
      {"measurement": "IC50", "setting": "rat P2X7 [4]", "result": 71, "unit": "nM"}
    ]},
    {"smiles": "CC1c2nnn(-c3ncccn3)c2CCN1C(=O)c1ccc(Cl)cc1Cl", "note": "(stereo not drawn) [Example 283, (2,4-dichlorophenyl)(4-methyl-1-(pyrimidin-2-yl)-6,7-dihydro-1H-[1,2,3]triazolo[4,5-c]pyridin-5(4H)-yl)methanone]", "values": [
      {"measurement": "PBMC 10 μM (% control)", "setting": "P2X7 [1]", "result": "−6.3", "unit": "% control"},
      {"measurement": "Ki", "setting": "P2X7 [2]", "result": 6.3, "unit": "nM"},
      {"measurement": "IC50", "setting": "P2X7 [3]", "result": 4.7, "unit": "nM"},
      {"measurement": "IC50", "setting": "rat P2X7 [4]", "result": 192, "unit": "nM"}
    ]},
    {"smiles": "CC1c2nnn(-c3ncccn3)c2CCN1C(=O)c1ccc(Cl)cc1F", "note": "(stereo not drawn) [Example 275, (4-chloro-2-fluorophenyl)(4-methyl-1-(pyrimidin-2-yl)-6,7-dihydro-1H-[1,2,3]triazolo[4,5-c]pyridin-5(4H)-yl)methanone]", "values": [
      {"measurement": "PBMC 10 μM (% control)", "setting": "P2X7 [1]", "result": "−8.3", "unit": "% control"},
      {"measurement": "Ki", "setting": "P2X7 [2]", "result": 24.5, "unit": "nM"},
      {"measurement": "IC50", "setting": "P2X7 [3]", "result": 46.9, "unit": "nM"},
      {"measurement": "IC50", "setting": "rat P2X7 [4]", "result": 673, "unit": "nM"}
    ]},
    {"smiles": "O=C(c1cccc(Cl)c1Cl)N1CCc2c(nnn2-c2cnccn2)C1", "note": "[Example 70, 5-[(2,3-Dichlorophenyl)carbonyl]-1-pyrazin-2-yl-4,5,6,7-tetrahydro-1H-[1,2,3]triazolo[4,5-c]pyridine]", "values": [
      {"measurement": "PBMC 10 μM (% control)", "setting": "P2X7 [1]", "result": 10.6, "unit": "% control"},
      {"measurement": "Ki", "setting": "P2X7 [2]", "result": 12.6, "unit": "nM"},
      {"measurement": "IC50", "setting": "P2X7 [3]", "result": 7.5, "unit": "nM"},
      {"measurement": "IC50", "setting": "rat P2X7 [4]", "result": 1330, "unit": "nM"},
      {"measurement": "IC50", "setting": "P2X7 [5]", "result": 501, "unit": "nM"}
    ]},
    {"smiles": "CCOC(=O)C1c2ncn(-c3ccccn3)c2CCN1C(=O)c1cccc(C(F)(F)F)c1Cl", "note": "(stereo not drawn) [Example 24, Ethyl 5-(2-chloro-3-(trifluoromethyl)benzoyl)-1-(pyridin-2-yl)-4,5,6,7-tetrahydro-1H-imidazo[4,5-c]pyridine-4-carboxylate]", "values": [
      {"measurement": "PBMC 1 μM (% control)", "setting": "P2X7 [1]", "result": 2.9, "unit": "% control"},
      {"measurement": "Ki", "setting": "P2X7 [2]", "result": 91.2, "unit": "nM"},
      {"measurement": "IC50", "setting": "P2X7 [3]", "result": 35, "unit": "nM"},
      {"measurement": "IC50", "setting": "rat P2X7 [4]", "result": 34.2, "unit": "nM"}
    ]},
    {"smiles": "CC1Cc2c(nnn2-c2ccccn2)CN1C(=O)c1ccc(F)c(Cl)c1Cl", "note": "(stereo not drawn) [Example 121, 5-[(2,3-Dichloro-4-fluorophenyl)carbonyl]-6-methyl-1-pyridin-2-yl-4,5,6,7-tetrahydro-1H-[1,2,3]triazolo[4,5-c]pyridine]", "values": [
      {"measurement": "PBMC 10 μM (% control)", "setting": "P2X7 [1]", "result": "−0.2", "unit": "% control"},
      {"measurement": "Ki", "setting": "P2X7 [2]", "result": 11.2, "unit": "nM"},
      {"measurement": "IC50", "setting": "P2X7 [3]", "result": 3.2, "unit": "nM"},
      {"measurement": "IC50", "setting": "rat P2X7 [4]", "result": 6.5, "unit": "nM"}
    ]}
  ]
}
